pIC50, pKi: −log10 of the molar value.
What was measured:
[1] = tested on: U-937; experiment: Antagonistic activity to inhibit the calcium mobilization response in human U-937 cells; assay type: functional, cell-based
[2] = target: Leukotriene B4 receptor 1 (Homo sapiens, UniProt Q15722); experiment: Binding affinity of [3H]LTB4 to receptors on intact human polymorphonuclear leukocytes
Leukotriene B4 receptor 1, sequence (Q15722 whole entry): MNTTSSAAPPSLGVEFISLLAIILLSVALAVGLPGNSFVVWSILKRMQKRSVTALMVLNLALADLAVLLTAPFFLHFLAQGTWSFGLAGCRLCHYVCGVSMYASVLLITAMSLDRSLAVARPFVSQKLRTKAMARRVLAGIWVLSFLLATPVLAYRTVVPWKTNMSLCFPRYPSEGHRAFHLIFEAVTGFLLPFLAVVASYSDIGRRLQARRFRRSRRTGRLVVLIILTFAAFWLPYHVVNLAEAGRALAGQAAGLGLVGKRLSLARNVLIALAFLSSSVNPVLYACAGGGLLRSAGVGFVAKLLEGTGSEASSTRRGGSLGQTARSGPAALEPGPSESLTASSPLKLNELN

Compound	pIC50 [1]	pKi [2]
CCCCCCCCCCCCOc1ccc(C[S+]([O-])c2ccc(C(=O)O)cc2)nc1/C=C/C(=O)O (configuration not stated)	5.89	6.60
CCCCCCCCCCCCOc1ccc(C[S+]([O-])c2cccc(C(=O)O)c2)nc1/C=C/C(=O)O (configuration not stated)	6.03	6.89
Nc1cccc([S+]([O-])Cc2ccc(OCCCCCCCCc3ccccc3)c(/C=C/C(=O)O)n2)c1 (configuration not stated)	6.80	7.96
COc1ccc(CCCCCCCCOc2ccc(C[S+]([O-])c3cccc(OC)c3)nc2/C=C/C(=O)O)cc1 (configuration not stated)	6.52	6.63
COc1ccc(CCCCCCCCOc2ccc(C[S+]([O-])c3cccc(NS(=O)(=O)c4ccccc4)c3)nc2/C=C/C(=O)O)cc1 (configuration not stated)	6.82	6.83
COc1ccc(CCCCCCCCOc2ccc(C[S+]([O-])c3cccc(C(=O)O)c3)nc2/C=C/C(=O)O)cc1 (configuration not stated)	5.96	6.82
CCCCCCCCCCOc1ccc(CC(O)c2cccc(C(=O)O)c2)nc1/C=C/C(=O)O (configuration not stated)	5.48	–
COc1ccc(CCCCCCCCOc2ccc(CSc3cccc(N(C)C)c3)nc2/C=C/C(=O)O)cc1	6.34	6.10
Nc1cccc(SCc2ccc(OCCCCCCCCc3ccc(C(F)(F)F)cc3)c(/C=C/C(=O)O)n2)c1	7.11	7.37
COc1ccc(CCCCCCCCOc2ccc(C[S+]([O-])c3cccc(N(C)C)c3)nc2/C=C/C(=O)O)cc1 (configuration not stated)	6.09	6.61
COc1ccc(CCCCCCCCOc2ccc(CSc3cccc(N)c3)nc2/C=C/C(=O)O)cc1	7.27	7.47
CCCCCCCCCCCCOc1ccc(CS(=O)(=O)c2cccc(C(=O)O)c2)nc1/C=C/C(=O)O	5.97	6.83
COc1ccc(CCCCCCCCOc2ccc(CSc3cccc(OC)c3)nc2/C=C/C(=O)O)cc1	6.54	6.72
CCCCCCCCCCCCOc1ccc(COc2cccc(C(=O)O)c2)[n+]([O-])c1/C=C/C(=O)O	6.00	6.47
COc1ccc(CCCCCCCCOc2ccc(C[S+]([O-])c3ccccc3)nc2/C=C/C(=O)O)cc1 (configuration not stated)	6.55	7.43
COc1ccc(CCCCCCCCOc2ccc(COc3cccc(C(=O)O)c3)[n+]([O-])c2/C=C/C(=O)O)cc1	6.05	6.82

Compound	pIC50 [1]	pKi [2]
Nc1cccc([S+]([O-])Cc2ccc(OCCCCCCCCc3ccc(C(F)(F)F)cc3)c(/C=C/C(=O)O)n2)c1 (configuration not stated)	7.27	7.85
COc1ccc(CCCCCCCCOc2ccc(CSc3cccc(NS(=O)(=O)c4ccccc4)c3)nc2/C=C/C(=O)O)cc1	6.62	6.22
CCCCCCCCCCOc1ccc(CC(O)c2cccc(C(=O)O)c2)nc1CCC(=O)O (configuration not stated)	5.47	6.37
COc1ccc(CCCCCCOc2ccc(CC(O)c3cccc(C(=O)O)c3)nc2/C=C/C(=O)O)cc1 (configuration not stated)	5.40	6.78
COc1ccc(CCCCCCCCOc2ccc(CSc3cccc(C(=O)O)c3)nc2/C=C/C(=O)O)cc1	6.41	7.10
COc1ccc(CCCCCCCCOc2ccc(CSc3cccc(NC(=O)C(=O)O)c3)nc2/C=C/C(=O)O)cc1	6.32	7.14
COc1ccc(CCCCCCCCOc2ccc(C[S+]([O-])c3cccc(N)c3)nc2/C=C/C(=O)O)cc1 (configuration not stated)	7.13	8.33
COc1ccc(CCCCCCCCOc2ccc(CSc3ccccc3)nc2/C=C/C(=O)O)cc1	6.96	7.13
Nc1cccc([S+]([O-])Cc2ccc(OCCCCCCCCc3ccc(F)cc3)c(/C=C/C(=O)O)n2)c1 (configuration not stated)	6.96	7.92
CCCCCCCCCCCCOc1ccc(COc2cccc(C(=O)O)c2)nc1/C=C/C(=O)O	6.24	5.95
COc1ccc(CCCCCCCCOc2ccc(CS(=O)(=O)c3cccc(N)c3)nc2/C=C/C(=O)O)cc1	6.82	7.44
CCCCCCCCC(O)/C=C/c1cccc(CC(O)c2cccc(C(=O)O)c2)n1 (configuration not stated)	–	9.00
COc1ccc(CCCCCCCCOc2ccc(CSc3cccc(NS(=O)(=O)C(F)(F)F)c3)nc2/C=C/C(=O)O)cc1	6.47	6.55
CCCCCCCCCCCCOc1ccc(C[S+]([O-])c2ccccc2C(=O)O)nc1/C=C/C(=O)O (configuration not stated)	5.82	6.32
Nc1cccc(SCc2ccc(OCCCCCCCCc3ccccc3)c(/C=C/C(=O)O)n2)c1	7.22	7.44
COc1ccc(CCCCCCCCOc2ccc(C[S+]([O-])c3cccc(CS(=O)(=O)C(F)(F)F)c3)nc2/C=C/C(=O)O)cc1 (configuration not stated)	6.26	6.65

From ChEMBL document CHEMBL1127077, “Trisubstituted pyridine leukotriene B4 receptor antagonists: synthesis and structure-activity relationships” (J Med Chem, 1993)
